{"source": "patent US5814627A", "about": "“3, 5-disubstituted and 3, 4, 5-trisubstituted 2-isoxazolines and isoxazoles, process for their preparation and their use as pharmaceuticals” (Hoechst Aktienegesellschaft, priority 1994, dated 1998)", "key": {"[1]": {"test_system": "IL-1 release from mononuclear cells", "experiment": "Test 4: cytokine release from LPS-stimulated mononuclear cells, IL-1", "format": "cell-based", "settings": "Homo sapiens; IL-1; 10 μM; read-out: Test 4 residual activity (IL-1 release), percent of control", "method": "(§1) Test 4. Stimulation of the cytokine release\n(§2) Isolation of mononuclear cells from human blood\n(§3) 10 ml of human blood, stabilized with 1 ml of 3.8% sodium citrate solution, were diluted with 10 ml of PM16 (Serva, Heidelberg) and underlaid with 15 ml of Lymphoprep (Dr. Molter GmbH, Heidelberg). The samples were centrifuged, at room temperature for 40 minutes, at 400×g (1600 rpm, Minifuge 2, Heraeus, Osterode). The mononuclear cells are visible as a white ring at the Lymphoprep/plasma interface. This ring was carefully removed with a syringe, diluted with an equal volume of PM16, and centrifuged for 10 minutes at 400×g. The sediment was washed with approximately 10 ml of RPMI1640 (+300 mg/l L-glutamine, Gibco, Eggenstein) (Wallis, 1986). After the cells had been resuspended in approximately 1 ml of RPMI1640 (+300 mg/l L-glutamine+25 mM HEPES+100 μg/ml streptomycin+100 μg/ml penicillin), the cell density was determined using a Coulter Counter JT (Coulter Diagnostics) and adjusted to 5*10^6 /ml. Typically, the cells are composed of 90% lymphocytes and 10% monocytes.\n(§4) 230 μl of mononuclear cells were incubated, at 37° C.; 5% CO2 for 20-22 hours (5 hours in the case of IL-6), with 10 μl of test substance (10 μM in DMSO/water, 1/10) and 10 μl of lipopolysaccharide (LPS; 500 μg dissolved in 1 ml of DMSO and diluted 1/10 with water prior to beginning the test; from Salmonella abortus equi, Sigma, Deisenhofen). The samples were cooled down to 0° C. in an ice bath and centrifuged in a Sigma centrifuge (2 minutes; 2000 rpm). Aliquots of the supernatant are measured with an ELISA (Biermann, Bad Nauheim). The abbreviation IL stands for interleukin and TNF for tumor necrosis factor alpha.\n(§5) The values in the table show the concentration of the test substance which was employed in μM and, besides this, the residual activity measured in percent based on the control, which was set to be 100%. The interleukin is additionally indicated in test 4."}, "[2]": {"test_system": "IL-6 release from mononuclear cells", "experiment": "Test 4: cytokine release from LPS-stimulated mononuclear cells, IL-6", "format": "cell-based", "settings": "Homo sapiens, 5 hours incubation, read-out: Test 4 residual activity (IL-6 release), percent of control", "method": "as §1, §2\nas §3, with “The sediment was washed with approximately 10 ml of RPMI1640 (+300 mg/l L-glutamine, Gibco, Eggenstein) (Wallis, 1986).” left out, “Typically, the cells are composed of 90% lymphocytes and 10% monocytes.” left out\nas §4, with “The samples were cooled down to 0° C. in an ice bath and centrifuged in a Sigma centrifuge (2 minutes; 2000 rpm).” left out, “The abbreviation IL stands for interleukin and TNF for tumor necrosis factor alpha.” left out"}, "[3]": {"test_system": "IL-1α release from mononuclear cells", "experiment": "Test 4: cytokine release from LPS-stimulated mononuclear cells, IL-1α", "format": "cell-based", "settings": "Homo sapiens, 10 μM, read-out: Test 4 residual activity (IL-1α release), percent of control", "method": "as §1, §2, §3\nas §4, with “([…])” for “(10 μM in DMSO/water, 1/10)”\nas §5"}, "adjuvant/arthritis model": {"test_system": "adjuvant/arthritis model", "experiment": "Test 6: antiarthritic effect in the adjuvant/arthritis model", "format": "in vivo, rat (Wistar-Lewis)", "settings": "Rattus norvegicus, po, 408 h, 50 mg/kg orally, daily for 17 days; rat; read-out: Test 6 Paw volume (% inhibition)"}, "[4]": {"test_system": "IL-1β release from mononuclear cells", "experiment": "Test 4: cytokine release from LPS-stimulated mononuclear cells, IL-1β", "format": "cell-based", "settings": "Homo sapiens, 10 μM, read-out: Test 4 residual activity (IL-1β release), percent of control", "method": "as §1, §2, §3, §4, §5"}}}
{"smiles": "CC(C)(C)c1cc(C2=NOC(c3ccccn3)C2)cc(C(C)(C)C)c1O", "note": "(stereo not shown) [Example 9]", "values": [{"measurement": "activity at 10 µM", "setting": "[1]", "result": 73, "unit": "%"}, {"measurement": "activity at 10 µM", "setting": "[2]; 10 μM", "result": 93, "unit": "%"}]}
{"smiles": "CC(O)c1cc(-c2cc(C(C)(C)C)c(O)c(C(C)(C)C)c2)no1", "note": "(stereo not shown) [Example 28]", "values": [{"measurement": "activity at 10 µM", "setting": "[3]", "result": 93, "unit": "%"}, {"measurement": "inhibition in vivo at 50 mg/kg", "setting": "adjuvant/arthritis model", "result": 74, "unit": "%"}]}
{"smiles": "CC(C)(C)c1cc(-c2cc(CNS(=O)(=O)C(F)(F)F)on2)cc(C(C)(C)C)c1O", "note": "[Example 49, N-(3-(4-Hydroxy-3,5-di-tert-butylphenyl)isoxazol-5-ylmethyl)trifluoromethanesulfonamide]", "values": [{"measurement": "activity at 1 µM", "setting": "[2]; 1 μM", "result": 91, "unit": "%"}]}
{"smiles": "CC(C)(C)c1cc(C2CC(CCC(=O)O)=NO2)cc(C(C)(C)C)c1O", "note": "(stereo not shown) [Example 63, 5-(4-Hydroxy-3,5-di-tert-butylphenyl)-2-isoxazolin-3-ylpropionic acid]", "values": [{"measurement": "activity at 10 µM", "setting": "[4]", "result": 77, "unit": "%"}, {"measurement": "activity at 10 µM", "setting": "[3]", "result": 75, "unit": "%"}]}
